Here are results for 9 compounds from US7622506B2, “Naphthalenedione compounds for treating inflammation related disorders and microbial infection” (SunTen Phytotech Co., Ltd., priority 2006, dated 2009).

Read-outs that look alike come from different tables or passages of the source.

One test addresses T1, 5-Lipoxygenase (Homo sapiens, UniProt P09917).
T1 sequence (P09917 1-674): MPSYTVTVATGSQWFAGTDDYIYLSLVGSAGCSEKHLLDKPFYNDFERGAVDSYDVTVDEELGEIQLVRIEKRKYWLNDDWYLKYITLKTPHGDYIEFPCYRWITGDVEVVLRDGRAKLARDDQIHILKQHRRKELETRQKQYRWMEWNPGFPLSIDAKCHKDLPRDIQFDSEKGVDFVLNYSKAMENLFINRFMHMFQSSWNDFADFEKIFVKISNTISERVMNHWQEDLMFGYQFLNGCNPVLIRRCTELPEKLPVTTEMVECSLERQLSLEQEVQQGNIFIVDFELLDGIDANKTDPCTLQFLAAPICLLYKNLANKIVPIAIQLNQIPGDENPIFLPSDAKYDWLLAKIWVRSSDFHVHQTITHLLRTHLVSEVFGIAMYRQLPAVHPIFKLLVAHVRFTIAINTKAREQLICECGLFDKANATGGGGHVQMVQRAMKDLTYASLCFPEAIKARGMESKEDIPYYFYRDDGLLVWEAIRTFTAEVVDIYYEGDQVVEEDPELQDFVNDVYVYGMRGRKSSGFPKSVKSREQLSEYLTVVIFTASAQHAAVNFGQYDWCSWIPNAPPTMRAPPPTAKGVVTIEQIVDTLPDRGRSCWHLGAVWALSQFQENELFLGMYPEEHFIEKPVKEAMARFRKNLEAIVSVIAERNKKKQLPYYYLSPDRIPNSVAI
Kind of test: Inhibition of 5-Lipoxygenase activity. In kind it is biochemical. The text has this: 5-Lipoxygenase has been known to be a key enzyme in the bio-synthesis of leukotrienes, important mediators in inflammatory and allergic processes. […] The experiment was repeated using various concentrations of the compounds.

The test system of test [1] is methicillin-resistant Staphylococcus aureus (ATCC33591). Put plainly: Growth inhibition of methicillin-resistant Staphylococcus aureus (ATCC33591). It counts as cell-based. Conditions: Table 5; repeated with various concentrations. The text has this:
In this example, the inhibition by the aforementioned compounds or extracts on the growth of methicillin-resistant Staphylococcus aureus (ATCC33591) was studied by a method modified from those described in Modugno et al., Antimicrobial Agents and Chemotherapy, 1994, 38: 2362-2368, and Misiek et al., Antimicrobial Agents Chemotherapy, 1973, 3: 40-48.
The above experiments on Staphylococcus aureus and Propionibacterium acnes were repeated using various concentrations of the compounds.

Setting [2] is: Table 2B, read-out: 5-Lipoxygenase, IC50.
Setting [3] is: Table 2A, concentration 10 μM, read-out: % Inhibition.
Setting [4] is: Table 2A, read-out: 5-Lipoxygenase, IC50.
The mark [5] stands for this setting: 5-Lipoxygenase, IC50 (μM), Table 2A.

Take `Cc1cc(C2CCCCC2)n(O)c(=O)c1` [Ciclpirox Olamine, reference compound]: the inhibition at 30 µM against 5-Lipoxygenase (Table 2B, concentration 30 μM) came out at 66%. For the same compound, at 5-Lipoxygenase (setting [2]), the concentration for half-maximal inhibition (IC50) is 16.9 µM. For the same compound, the “Anti-microbial Activity, effective concentration range, MRSA” value in test [1] is 37.3 µM.
As for `CCC(C)C(=O)O[C@H](CC=C(C)C)C1=CC(=O)c2c(O)ccc(O)c2C1=O` (some centres unmarked) [MBSK, 1-(5,8-dihydroxy-1,4-dioxo-1,4-dihydronaphthalen-2-yl)-4-methylpent-3-enyl 2-methylbutanoate], the inhibition at 10 µM on 5-Lipoxygenase (setting [3]) came out at 98%. Further, at 5-Lipoxygenase (setting [4]), the 50% inhibitory concentration (IC50) turned out to be 1.37 µM. Besides, the “Anti-microbial Activity, effective concentration range, MRSA” value in test [1] worked out at 2.7 µM.
With “epigallocatechin-3 gallate [EGCG, reference compound]”, at 5-Lipoxygenase (Table 2B, concentration 100 μM), the “% Inhibition” value worked out at 58%. Besides, the half-maximal inhibitory concentration (IC50) at 5-Lipoxygenase (setting [2]) was 87.2 µM.
Consider `CC(=O)O[C@H](CC=C(C)C)C1=CC(=O)c2c(O)ccc(O)c2C1=O` [ASK, (R)-1-(5,8-dihydroxy-1,4-dioxo-1,4-dihydronaphthalen-2-yl)-4-methylpent-3-enyl acetate], for which, on 5-Lipoxygenase, the inhibition at 10 µM turned out to be 99%. Besides, the IC50 against 5-Lipoxygenase (setting [5]) turned out to be 1.46 µM. For the same compound, the “Anti-microbial Activity, effective concentration range, MRSA (μM)” value (“Anti-microbial Activity … (μM)” for short) in test [1] is reported as 0.9~3.0 μM.
As for `CC(C)=CC[C@@H](OC(=O)C=C(C)C)C1=CC(=O)c2c(O)ccc(O)c2C1=O` [BSK], the inhibition at 10 µM at 5-Lipoxygenase (setting [3]) turned out to be 99%. In addition, on 5-Lipoxygenase (setting [4]), the half-maximal inhibitory concentration (IC50) amounted to 1.2 µM. For the same compound, in test [1], the “Anti-microbial Activity, effective concentration range, MRSA” value came to 2.8 µM.
`CC(C)=CC[C@@H](O)C1=CC(=O)c2c(O)ccc(O)c2C1=O` [SK, (R)-5,8-dihydroxy-2-(1-hydroxy-4-methylpent-3-enyl)naphthalene-1,4-dione]: at 5-Lipoxygenase, the IC50 is 0.39 µM, the inhibition at 1 µM came to 70%, the inhibition at 1 µg/mL was found to be 51% and the inhibition at 10 µM was found to be 101%. The half-inhibitory concentration (IC50) on 5-Lipoxygenase (5-Lipoxygenase, IC50, Table 2B) is 2.93 µM. Besides, the “Anti-microbial Activity … (μM)” value in test [1] is on record as 10.4~34.7 μM.
On to Gentamicin [reference compound], for which the “Anti-microbial Activity, effective concentration range, MRSA” value in test [1] came to 2.1 µM.
For the compound `CC(C)=CCCC1=CC(=O)c2c(O)ccc(O)c2C1=O` [DSK, 5,8-dihydroxy-2-(4-methylpent-3-enyl)naphthalene-1,4-dione], at 5-Lipoxygenase, the inhibition at 10 µM worked out at 53% and the inhibition at 10 µg/mL was found to be 64%. Also, 7.01 µM corresponded to half-maximal inhibition against 5-Lipoxygenase (setting [5]) (IC50). The IC50 on 5-Lipoxygenase (5-Lipoxygenase, IC50, Table 2B) is 20.1 µM. For the same compound, the “Anti-microbial Activity … (μM)” value in test [1] is listed as 7.8~26.0 μM.
As for `CC(C)=CC[C@@H](OC(=O)C(C)C)C1=CC(=O)c2c(O)ccc(O)c2C1=O` [ISK, (R)-1-(5,8-dihydroxy-1,4-dioxo-1,4-dihydronaphthalen-2-yl)-4-methylpent-3-enyl isobutyrate], the inhibition at 10 µM on 5-Lipoxygenase (setting [3]) was 98%. In addition, the 50% inhibitory concentration (IC50) at 5-Lipoxygenase (setting [4]) came to 1.54 µM. For the same compound, the “Anti-microbial Activity, effective concentration range, MRSA” value in test [1] was determined as 7.7 µM.

Broadly, the inhibition is the drop in the measured response relative to a control, in per cent. Broadly, the IC50 is the concentration that gives 50% inhibition. One may read the % Inhibition as how much of the control response was suppressed.
